In US5776935A, “Pyrido-phtalazin diones and their use against neurological disorders associated with excitotoxicity and malfunctioning of glutamatergic neurotransmission” (Merz & Co. GmbH & Co., priority 1996, dated 1998):
Counter-ions that a name gives are not always drawn. Like-named read-outs stand apart in the source and are kept apart here.

Columns and labels:
NMDA receptor [1] = biological target: T1, NMDA receptor (Mus musculus, UniProt P35438); test: Maximal electroshock (MES)-induced tonic convulsions; type: in vivo; conditions: i.p.; for MES ID50 / ED50: 15 min before induction; for ED50: mouse, ip, 0.25 h, read-out: MES ID50
T1 construct: from tissue; host or cells: living mice (albino Swiss males for NMDA and PTZ tests, NMR females for MES)
Method: (§1) To assess NMDA receptor antagonistic properties of the tested agents by assessing anticonvulsive effects. Additionally the role of organic acid transporters in the elimination from the brain of tested agents was assessed by using an inhibitor, Probenicid, on the duration of anticonvulsive activity.
(§2) Male albino Swiss mice (19-21 g) housed 10-15 per cage were used for the NMDA lethality test (Leander et al., 1988). For pentylenetetrazol (PTZ)-induced convulsions male albino Swiss mice (25-34 g.) housed 40 per cage (58×38×20 cm) were used while in the maximal electroshock (MES) and motor impairment tests NMR female mice (18-28 g) housed 5 per cage were employed. All animals were kept with water and food ad libittum under a 12-h light-dark cycle (light on at 6 a.m.), and at a controlled temperature (20°±0.5° C.). All experiments were performed between 10 a.m. and 5 p.m. Tested agents were injected 15 min. i.p before the induction of convulsions if not stated otherwise (see below). Mrz 2/502 was dissolved in saline added with NaOH. Most other agents were dissolved in the following solution: 0.606 g Tris; 5.0 g. glucose; 0.5 g. Tween 80; and 95 ml water. The choline and tetramethylammonium salts were dissolved in distilled water.
(§3) MES (100 Hz, 0.5 sec shock duration, 50 mA shock intensity, 0.9 ms impulse duration, Ugo Basile) was applied through corneal electrodes. The presence of tonic convulsions was scored (tonic extension of hind paws with minimum angle to the body of 90°). In an additional experiment mice were injected with Probenicid (200 mg/kg) 30 min before administration of the tested agents to assess the role of organic acid transport in elimination (duration of action). The aim was to obtain ED50 s for all parameters scored using the Litchfield Wilcoxon (1949) test for quantal dose responses.

AMPA = test: Microelectrophoretic application of AMPA to spinal neurones in vivo; conditions: i.v., responses of single rat spinal neurones
Method: (§4) The ability of these glycineB antagonists to act as NMDA receptor antagonists in vivo was assessed using i.v. administration against responses of single neurones in the rat spinal cord to microelectrophoretic application of AMPA and NMDA.

NMDA receptor [2] = biological target: T2, NMDA receptor (Rattus norvegicus, UniProt P35439); test: Patch clamp, inward currents to NMDA in cultured superior colliculus neurones; type: cell-based; conditions: NMDA 200 μM, glycine 1 μM
T2 construct: endogenous in cells
Method: Cells were mechanically dissociated in 0.05% DNAase / 0.3% ovomucoid (Sigma) following a 15 minute pre-incubation with 0.66% trypsin / 0.1% DNAase (Sigma). The dissociated cells were then centrifuged at 18G for 10 minutes, resuspended in minimum essential medium (Gibco) and plated at a density of 200,000 cells cm onto poly-L-lysine (Sigma)-precoated plastic petri dishes (Falcon). The cells were nourished with NaHCO3 /HEPES-buffered minimum essential medium supplemented with 5% foetal calf serum and 5% horse serum (Gibco) and incubated at 37° C. with 5%CO2 at 95% humidity. The medium was exchanged completely following inhibition of further glial mitosis with cytosine-β-D-arabinofuranoside (20 μM Sigma) after about 7 days in vitro. Thereafter the medium was exchanged partially twice weekly. […] Moreover, the relatively small neurones (soma 15-20 μm .phi.) are ideally suited to minimise problems of buffered diffusion for concentration clamp experiments.
Patch clamp recordings were made from these neurones with polished glass electrodes (4-6 m.OMEGA.) in the whole cell mode at room temperature (20°-22° C.) with the aid of an EPC-7 amplifier (List). Test substances were applied by switching channels of a custom made fast superfusion system with a common outflow (10-20 ms exchange times). The contents of the intracellular solution were as follows (mM): CsCl (120), TEACl (20), EGTA (10), MgCl2 (1), CaCl2 (0.2), glucose (10), ATP (2), cAMP (0.25); pH was adjusted to 7.3 with CsOH or HCl. The extracellular solutions had the following basic composition (mM): NaCl (140), KCl (3), CaCl2 (0.2), glucose (10), HEPES (10), sucrose (4.5), tetrodotoxin (TTX 3*10-4). For most experiments glycine (1 μM) was present in all solutions. Experiments to test the glycine-dependence of the tricyclic "pyrido-phtalazin diones" were performed in the continuous presence of increasing concentrations of glycine (1-10 μM).
This effect was mediated at the glycineB site as evidenced by the parallel shift in the concentration-response curves in the presence of increasing glycine concentrations. Thus the Kbs of Mrz 2/502 as assessed according to the Cheng-Prusoff relationship were similar in glycine 1, 3 and 10 μM (80, 124 and 118 nM respectively). […] Choline derivatives had similar potencies to the free acids in vitro (Table14b).

organic acid transport = test: Duration of anticonvulsive action with and without probenecid; type: in vivo, mouse; conditions: listed as 2/570
Method: as §1, §2, §3
Moreover it seems that choline salts have a longer duration of action. Probenecid injection prolonged considerably the duration of anticonvulsive action of all agents tested. For example the half lives of 2/514 and 2/570 were around 40 and 80 minutes respectively in the absence of probenicid. In the presence of probenicid the half lives were prolonged to around 180 and 210 minutes respectively. Thus, it seems that organic acids transport in the choroid plexus out of the brain plays an important role in the short duration of action of the compounds tested..

NMDA receptor [3] = biological target: T2, NMDA receptor; test: Microelectrophoretic application of NMDA to spinal neurones in vivo; conditions: rat, iv, responses of single rat spinal neurones; read-out: Microelectrophoretic NMDA ID50
Method: as §4

NMDA receptor [4] = biological target: T1, NMDA receptor; test: Pentylenetetrazol (PTZ)-induced convulsions; type: in vivo; conditions: ip, 0.25 h, i.p., PTZ 90 mg/kg i.p., read-out: PTZ ID50
Method: as §1, §2
Pentylenetetrazol was injected at a dose of 90 mg/kg (i.p). The presence of general tonic convulsions was then scored for 30 min as this parameter is more sensitive to NMDA receptor antagonists than clonic convulsions. The pharmacological end-point was taken as the presence of tonus in the hind limbs with stretching.

NMDA receptor [5] = biological target: T1, NMDA receptor; test: NMDA-induced convulsions / lethality test; type: in vivo; conditions: ip, 0.25 h, i.p., 15 min before induction, read-out: NMDA ID50
Method: as §1, §2
In the NMDA-induced convulsions test in mice, a dose-response relationship for NMDA was first performed to determine the ED97 dose which was then used for testing of antagonistic properties. After injection of the ED97 dose of NMDA the animals were placed in a small cage (20×28×14 cm) and observed for 20 min. Death preceded by clonic convulsions and by tonic seizures was the pharmacological end-point.

[6] = biological target: T3, glycineB site of the NMDA receptor (rat cortical membranes) (Rattus norvegicus, UniProt P35439); test: [3H]5,7-DCKA binding assay; conditions: 10 nM [3H]5,7-DCKA
T3 construct: The cortex was dissected and homogenised in 20 volumes of ice-cold 0.32M sucrose; from tissue; host or cells: brain cortex membranes of male Sprague-Dawley rats
Method: Tissue preparation was performed according to Foster and Wong (1987). Male Sprague-Dawley rats (200-250g) were decapitated and their brains were removed rapidly. The cortex was dissected and homogenised in 20 volumes of ice-cold 0.32M sucrose using a glass-Teflon homogenizer. The homogenate was centrifuged at 1000×g for 10 min. The pellet was discarded and the supernatant centrifuged at 20,000×g for 20 min. The resulting pellet was resuspended in 20 volumes of distilled water and centrifuged for 20 min at 8000×g. Then the supernatant and the buffy coat were centrifuged three times (48,000× g for 20 min) in the presence of 5 mM Tris-HCl, pH 7.4. All centrifugation steps were carried out at 4° C. After resuspension in 5 volumes of 5 mM Tris-HCl, pH 7.4 the membrane suspension was frozen rapidly at -80° C. until the day of assay. On the day of assay the membranes were thawed and washed four times by resuspension in 5 mM Tris-HCl, pH 7.4 and centrifugation at 48,000× g for 20 min. The final pellet was suspended in assay buffer.
The amount of protein in the final membrane preparation was determined according to the method of Lowry (1951) with some modifications (Hartfree, 1972). 50 μl of Protein samples (in triplicates) were diluted to 1 ml with distilled water and treated with 0.9 ml of a solution containing 2 g potassium sodium tartrate and 10 g Na2 CO3 in 500 ml 1N NaOH and 500ml water. Blank and standard (with bovine serum albumin) were set up in the same way. The tubes were placed in a water bath at 50° C. for 10 min. and cooled at room temperature. 100 μl of a solution containing 2 g potassium sodium tartrate and 1 g CuSO4 x 5 H2 O in 90 ml water and 10 ml 1N NaOH were added. The samples were left at room temperature for at least 10 min., then 3 ml of Folin-Ciocalteu reagent (1 ml of reagent diluted with 15 ml water) was added rapidly during mixing. The tubes were again heated at 50° C. for 10 min. and cooled to room temperature. Absorbencies were then read in 1 cm cuvets at 650 nm. The final protein concentration used for our studies was between 100 and 250 μg/ml.
Incubation in both binding assays was terminated using a Millipore filter system. The samples, all in triplicate, were rinsed three times with 2.5 ml ice cold assay buffer over glass fibre filters obtained from Schleicher & Schuell under a constant vacuum. Following separation and rinse the filters were placed into scintillation liquid (5 ml; Ultima Gold) and radioactivity retained on the filters was determined by using conventional liquid scintillation counter (Hewlett Packard, Liquid Scintillation Analyser). `Total binding` was the absolute amount of radioligand bound in the absence of any additives whereas `non-specific` binding was determined in the presence of a high concentration of competitor.
[^3 H]5,7-DCKA binding assay
Experiments were performed according to the methods modified from previous groups (Canton et al., 1991; Yoneda et al., 1993). Membranes were suspended and incubated in 10 mM Tris-HCl, pH 7.4. Incubation time was 45 min at 4° C. Non-specific binding of [^3 H]5,7-DCKA was defined by the addition of unlabeled glycine at 0.1 mM. The stop-solution contained 10 mM Tris-HCl and 10 mM magnesium sulphate, pH 7.4. Filtration was performed as rapidly as possible. Displacement experiments were performed with a fixed [^3 H]5,7-DCKA concentration of 10 nM. Test compounds were diluted in water or DMSO and added in at least 5 different concentrations.

[7] = In vivo systemic and / or CNS availability
[8] = peak currents, read-out: Peak NMDA IC50
[9] = plateau (steady-state) currents, read-out: Plateau NMDA IC50

O=c1[nH]nc(O)c2c1cc1cc(Br)ccc1[n+]2[O-] [Mrz 2/570, 8-bromo-4-hydroxy-1-oxo-1,2-dihydropyridazino[4,5-b]-quinoline 5-oxide choline salt]
MES ID50 (NMDA receptor [1]; listed as 570, 15 min): 12.8 mg/kg
Microelectrophoretic AMPA ID50 (AMPA): > 16.0 mg/kg
IC50 (NMDA receptor [2]; [8]): 0.6 µM
IC50 (NMDA receptor [2]; [9]): 0.1 µM
half life of anticonvulsive action (organic acid transport; absence of probenecid): ~1.33 h
half life of anticonvulsive action (organic acid transport; presence of probenecid 200 mg/kg, 30 min before): ~3.5 h
ED50 (NMDA receptor [3]): 4.5 mg/kg

O=c1[nH][nH]c(=O)c2nc3cc(Br)c(Cl)cc3cc12 [Mrz 2/538]
ED50 (NMDA receptor [1]): > 60 mg/kg
ED50 (NMDA receptor [4]): > 100 mg/kg
ED50 (NMDA receptor [5]): 106 mg/kg
IC50 (NMDA receptor [2]; [8]): 93.9 µM
IC50 (NMDA receptor [2]; [9]): 2.5 µM

O=c1[nH][nH]c(=O)c2nc3cc(Cl)c(Br)cc3cc12 [Mrz 2/539]
ED50 (NMDA receptor [1]): > 60 mg/kg
ED50 (NMDA receptor [4]): > 100 mg/kg
ED50 (NMDA receptor [5]): > 100 mg/kg
IC50 (NMDA receptor [2]; [8]): 5.3 µM
IC50 (NMDA receptor [2]; [9]): 0.7 µM

O=c1[nH]nc(O)c2c1cc1ccccc1[n+]2[O-] [Mrz 2/499, 4-hydroxy-1-oxo-1,2-dihydro-pyridazino[4,5-b]-quinoline 5-oxide]
activity in the MES test (NMDA receptor [1]): effective
MES ID50 (NMDA receptor [1]; listed as 499, 15 min): 87.0 mg/kg
ED50 (NMDA receptor [4]): 18.6 mg/kg
IC50 (NMDA receptor [2]; [8]): 51.2 µM
IC50 (NMDA receptor [2]; [9]): 13.8 µM
IC50 [6]: 16 µM
in vivo systemic and / or CNS availability versus associated class I compounds [7]: much better

O=c1[nH][nH]c(=O)c2nc3ccccc3cc12 [Mrz 2/585]
ED50 (NMDA receptor [1]): > 100 mg/kg
ED50 (NMDA receptor [4]): 59 mg/kg
ED50 (NMDA receptor [5]): 58.9 mg/kg
IC50 (NMDA receptor [2]; [8]): 65.9 µM
IC50 (NMDA receptor [2]; [9]): 19.1 µM
